The source of these data is patent US5726203A, “Qinghaosu derivatives against AIDS” (priority 1993, dated 1998).

Structures can show the parent of a compound that is named as a salt. Where two headings read alike, the source gives them in different places.

In one data set the test system is HIV-1 (MT4). Description: Anti-HIV effect on MT4 cells, virus antigen expression (immunoenzymatic method). The format is cell-based. An excerpt:
The virus used was HIV-1 which had been obtained from Professor Montagnier of the Pastear Institute, France. The virus titer used in the experiment was 1×10^4 TCID50 /ml. The cell culture used was CEM cell line which was cultivated in the HIV laboratory of Institute of Virology, Chinese Academy of Preventive Medicine, for cultivation storage of HIV-1.
The compounds used in the experiment were qinghaosu, dihydroqinghaosu, Artesunate, Artemether, dihydroqinghaosu-methylcarbamate, dihydroqinghaosu-benzenecarbamate, qinghaosu-morpholinyl propylether maleate, dihydroqinghaosu-diethyl amino ethyl ether maleate, deoxyqinghaosu-morpholinyl ethyl ether maleate, qinghaosu-morpholinyl propanol ether maleate, qinghaosu-3,5-dimonpholinyl methyl-4-hydroxy benzyl ether maleate, dihydroqinghaosu-m-chlorobenzoate, qinghaosu-3-pyrrolidinylmethyl-4-hydroxybenzoate oxalate, and qinghaosu-3-morpholinylmethyl-4-hydroxybenzoate oxalate. […] The concentration of the original solution of these compounds were all 1 mg/ml.
(§1) a. Freshly cultured MT4 cells (5×10^5 /ml) were co-cultivated with the virus fluid (10^3 TCID50 /ml) in a CO2 incubator at 37° C. for 1-1.5 hours. RPMI 1640 complete medium (containing 10% Bovine serum and antibiotics, such as penicillin) was used to wash the unbound virus.
(§2) Complete medium was added to correct the concentration for use.
(§3) The experiment was carried out on the plates with 96 wells. 0.1 ml of the above-mentioned infected MT4 cell suspension was added into each well, and then 0.1 ml of various concentrations of the drugs were added. […] Each concentration of the drugs was added into two wells. Both the experiment group and the control group were incubated in a CO2 incubator at 37° C. The drug solution were changed 3 days later, and the following observations were carried out 6 days afterwards.
b. Observation on the growth situation of cells. Trypan blue dye was used to observe the quantity of live cells in each group.
(§4) c. Determination of the virus antigen expression. The immunoenzymatic method was used to examine the virus antigen expression. Cells from each group were separately smeared in two wells. They were fixed with cold acetone, HIV-positive serum was dropped into the wells. After incubated in a CO2 incubator at 37° C. for 30 minutes, they were washed with PBS for 3 times. Enzyme-labelled SPA was dropped into the wells. They were incubated in the same condition for 30 minutes, washed with PBS for 3 times, and then put in substrate solution to stain for 2-3 minutes, washed with distilled water, and observed under microscope. Normal cells were colorless, whereas virus-carrying cells appeared browrish red.
The mark used were as follows:
The experiment was repeated two to three times.
The concentration of the original fluid of these compounds were all 1 mg/ml. 0.1 ml was taken and added into 0.1 ml of virus-carrying cell suspension, thus the reaction concentrations were as follows: in the original fluid group, 0.1 mg/0.2 ml, i.e., 0.5 mg/ml; in 1×10^-1group, 0.05 mg/ml; in 1×10^-2 group, 0.005 mg/ml; in 1×10^-3 group, 0.0005 mg/ml, i.e., 0.5 μg/ml; and on the analogy of this.

A further data set can be described thus: Acute toxicity in mice. As to conditions: mouse, in vivo. The format is in vivo. The protocol:
Animals: Hybrid swiss strain mice (provided by Animal House of Institute of Chinese Mateia Media, China Academy of Traditional Chinese Medicine), 20-22 grams, less than 6 weeks age of both sexes fed in laboretory for 3-5 days observation and a random taking food and drinking.
Drugs: Dihydroqinghaosu-methylcarbamate and dihydroqinghaosu-benzenecarbamate.
Above two drugs in powder form were dissolved into peanut oil. The biggest dose were 2000 mg/kg and 2161 mg/kg respectively. The distances between two dose groups were 0.7 and 0.68 respectively, with 5 dose groups each drugs.
Method: The mice were given single dose of above compound respectively intragastrically, the acute intoxication manifestrations were observed the LD value (LD5, LD50 and LD95) and B value were determined by three days mortality.

The subject of data set [1] is U937 HIV-1. Description: Inhibition effect on HIV-1 infected U937 cells (macrophage cell line), HIV antigen test (IE). The settings on record: U937 HIV-1; 50 μg/ml. The format is cell-based. How it is done:
as §1, §2, §3, §4
(§5) Furthermore, a part of the compounds according to the present invention were used to test their inhibition effect on U937 cell line (macrophage cell line)according to the methods in Experiment 1.

Data set [2] relates to U937 HIV-1. Nature of the data set: Inhibition effect on HIV-1 infected U937 cells, activity of reverse transcriptase. The settings on record: 50 μg/ml, control 24502. It is filed as cell-based.
Text: as §5

For data set [3] the following is noted: cited from earlier work.
A further data set relates to Plasmodium Berghei. Nature of the data set: Peters' four day inhibition test in mice, erythrocytic stage of Plasmodium Berghei. The format is in vivo. As to conditions: once a day D0-D3, Hybrid Kunming strain mice, read-out: SD50 (the source's name). An excerpt:
Effect on Erythrocytic Stage of Plasmodium Berghei 1. "Four day inhibition test" in mice To determinate the SD50 with Peters' "four day inhibition test". Hybrid Kunming strain mice, body weight 18-22 g, were inculated with 1×10^7 parasites infected RBC intraperitoneally on D0. Dihydroqinghaosu-methylcarbamate, dihydroqinghaosu-butylcarbamate, dihydroqinghaosu-benzenecarbamate and dihydroqinghaosu-4-nitrobenzenecarbamate with different concentration were given once a day from D0 -D3. Blood smears from mouse's tail were made on D4, stained with Gimsa reagent and examined under microscope to count the infected and uninfected erthrocyte to get infected rate. Inhibitory rates of different dosages were calculated by following formula. The SD50 was calculated by the simplified probit analysis: [formula]

For `CO[C@H]1O[C@@H]2O[C@@]3(C)CC[C@H]4[C@H](C)CC[C@@H]([C@H]1C)[C@@]24OO3` [Artemether, reference compound], the “effect on HIV-1 (MT4), virus antigen expression” value (“effect on HIV-1 (MT4)” below) in the data set on HIV-1 (MT4) (1 × 10^-1 (50 μg/ml)) is reported as “- (positive cells were not seen in the whole well)”; in the data set with HIV-1 (MT4) (1 × 10^-2 (5 μg/ml)), “- (positive cells were not seen in the whole well)”; with HIV-1 (MT4) (1 × 10^-3 (0.5 μg/ml)), “± (there were only 1-2 doubtful positive cells in whole well)”; in the data set on HIV-1 (MT4) (1 × 10^-4 (0.05 μg/ml)), “+ (there were 2-3 or more positive cells in the whole well)”. The LD50 in the data set “Acute toxicity in mice” (im, I.M. (Intramuscular injection)) was 263 mg/kg.

Consider `C[C@H]1[C@H](OC(=O)CCC(=O)O)O[C@@H]2O[C@@]3(C)CC[C@H]4[C@H](C)CC[C@@H]1[C@@]24OO3` [Artesunate, reference compound], for which the “effect on HIV-1 (MT4)” value is recorded as “- (positive cells were not seen in the whole well)” in the data set with HIV-1 (MT4) (1 × 10^-1 (50 μg/ml)), “- (positive cells were not seen in the whole well)” in the data set on HIV-1 (MT4) (1 × 10^-2 (5 μg/ml)), “- (positive cells were not seen in the whole well)” with HIV-1 (MT4) (1 × 10^-3 (0.5 μg/ml)) and “+ (there were 2-3 or more positive cells in the whole well)” in the data set on HIV-1 (MT4) (1 × 10^-4 (0.05 μg/ml)). In addition, in the data set “Acute toxicity in mice” (I.V. (Intravenous injection)), the LD50 was 769 mg/kg. Besides, the “Antigen test (IE)” value in the data set on U937 HIV-1 [1] was “- (positive cells were not seen in the whole well)”. Also, the “Activity of reverse transcription (CPM)” value with U937 HIV-1 [2] was 4846 CPM.

For `Nc1ccn([C@H]2CC[C@@H](CO)O2)c(=O)n1` [DDC, di-deoxycytidine], in data set [3] (appears 6 weeks after drug administration), the “toxicity to peripheral nerves” value was “toxicity to peripharal nerves”.

For the compound `O=c1[nH]cnc2c1ncn2[C@H]1CC[C@@H](CO)O1` [DDI, di-deoxytrophicardyl], in data set [3] (in vivo), the “toxicity to peripheral nerves” value is recorded as “toxicity to peripharal nerves”.

`C[C@H]1[C@@H](O)O[C@@H]2O[C@@]3(C)CC[C@H]4[C@H](C)CC[C@@H]1[C@@]24OO3` [Dihydroqinghaosu, dihydroqinghaosu, reference compound]: the “effect on HIV-1 (MT4)” value is recorded as “- (positive cells were not seen in the whole well)” in the data set with HIV-1 (MT4) (1 × 10^-1 (50 μg/ml)), “- (positive cells were not seen in the whole well)” in the data set with HIV-1 (MT4) (1 × 10^-2 (5 μg/ml)), “± (there were only 1-2 doubtful positive cells in whole well)” in the data set on HIV-1 (MT4) (1 × 10^-3 (0.5 μg/ml)) and “+ (there were 2-3 or more positive cells in the whole well)” in the data set with HIV-1 (MT4) (1 × 10^-4 (0.05 μg/ml)). In addition, the LD50 in “Acute toxicity in mice” (po, P.O. (per os)) came out at 765 mg/kg.

On to `CC1CCC2C(C)C(OC(=O)Nc3ccc([N+](=O)[O-])cc3)OC3OC4(C)CCC1C32OO4` (stereo not shown) [Dihydroqinghaosu-4-nitrobenzenecarbamate, Dihydroqinghaosu-P-Nitrobenzenecarbamate], for which, in the data set with Plasmodium Berghei, the ED50 was 0.3 mg/kg.

For the compound `CCCCNC(=O)OC1OC2OC3(C)CCC4C(C)CCC(C1C)C24OO3` (stereo not shown) [Dihydroqinghaosu-butylcarbamate, dihydroqinghaosu-butylcarbamate], the ED50 in the data set with Plasmodium Berghei is 0.25 mg/kg.

On to `CC1CCC2C(C)C(OC(=O)c3cccc(Cl)c3)OC3OC4(C)CCC1C32OO4` (stereo not shown) [Dihydroqinghaosu-m-chlorobenzoate, dihydroqinghaosu-m-chlorobenzoate], for which the “effect on HIV-1 (MT4)” value in the data set on HIV-1 (MT4) (1 × 10^-1 (50 μg/ml)) is “- (positive cells were not seen in the whole well)”; in the data set with HIV-1 (MT4) (1 × 10^-2 (5 μg/ml)), “- (positive cells were not seen in the whole well)”; in the data set with HIV-1 (MT4) (1 × 10^-3 (0.5 μg/ml)) it was “+ (there were 2-3 or more positive cells in the whole well)”.

`C[C@@H]1CC[C@H]2[C@@H](C)C(=O)O[C@@H]3O[C@@]4(C)CC[C@@H]1[C@]32OO4` [Qinghaosu, Qinghaosu (Artemisinin)]: the “effect on HIV-1 (MT4)” value in the data set on HIV-1 (MT4) (1 × 10^-1 (50 μg/ml)) is given as “- (positive cells were not seen in the whole well)”; with HIV-1 (MT4) (1 × 10^-2 (5 μg/ml)) it was “- (positive cells were not seen in the whole well)”; in the data set with HIV-1 (MT4) (1 × 10^-3 (0.5 μg/ml)), “+ (there were 2-3 or more positive cells in the whole well)”; in the data set with HIV-1 (MT4) (1 × 10^-4 (0.05 μg/ml)) it was “+ (there were 2-3 or more positive cells in the whole well)”.

Take `CCN(CC)CCOC1OC2OC3(C)CCC4C(C)CCC(C1C)C24OO3` (stereo not shown) [dihydroqinghaosu-diethyl amino ethyl ether maleate]: the “effect on HIV-1 (MT4)” value is on record as “± (there were only 1-2 doubtful positive cells in whole well)” in the data set with HIV-1 (MT4) (1 × 10^-1 (50 μg/ml)), “+ (there were 2-3 or more positive cells in the whole well)” in the data set on HIV-1 (MT4) (1 × 10^-2 (5 μg/ml)) and “+ (there were 2-3 or more positive cells in the whole well)” in the data set with HIV-1 (MT4) (1 × 10^-3 (0.5 μg/ml)).

Consider `CC1CCC2C(C)C(OCc3cc(CN4CCOCC4)c(O)c(CN4CCOCC4)c3)OC3OC4(C)CCC1C32OO4.O=C(O)/C=C\C(=O)O` (stereo not shown) [qinghaosu-3,5-dimonpholinyl methyl-4-hydroxy benzyl ether maleate], for which the “effect on HIV-1 (MT4)” value with HIV-1 (MT4) (1 × 10^-1 (50 μg/ml)), with HIV-1 (MT4) (1 × 10^-2 (5 μg/ml)) and with HIV-1 (MT4) (1 × 10^-3 (0.5 μg/ml)) was “+ (there were 2-3 or more positive cells in the whole well)” in each case.

For “Deoxyquinghaosu-morpholinyl propanol ether maleate”, the “effect on HIV-1 (MT4)” value is on record as “- (positive cells were not seen in the whole well)” in the data set on HIV-1 (MT4) (1 × 10^-1 (50 μg/ml)), “+ (there were 2-3 or more positive cells in the whole well)” with HIV-1 (MT4) (1 × 10^-2 (5 μg/ml)) and “- (positive cells were not seen in the whole well)” in the data set on HIV-1 (MT4) (1 × 10^-3 (0.5 μg/ml)).

For the compound “qinghaosu-3-morpholinylmethyl-4-hydroxybenzoate oxalate”, the figures for the “effect on HIV-1 (MT4)” value in the data set with HIV-1 (MT4) (1 × 10^-1 (50 μg/ml)), in the data set with HIV-1 (MT4) (1 × 10^-2 (5 μg/ml)) and in the data set with HIV-1 (MT4) (1 × 10^-3 (0.5 μg/ml)) were “± (there were only 1-2 doubtful positive cells in whole well)”, “+ (there were 2-3 or more positive cells in the whole well)” and “+ (there were 2-3 or more positive cells in the whole well)”, respectively.

For the compound “qinghaosu-3-pyrrolidinylmethyl-4-hydroxybenzoate oxalate”, the “effect on HIV-1 (MT4)” value in the data set with HIV-1 (MT4) (1 × 10^-1 (50 μg/ml)) was “- (positive cells were not seen in the whole well)”; with HIV-1 (MT4) (1 × 10^-2 (5 μg/ml)), “+ (there were 2-3 or more positive cells in the whole well)”; in the data set on HIV-1 (MT4) (1 × 10^-3 (0.5 μg/ml)), “- (positive cells were not seen in the whole well)”.

As for “qinghaosu-morpholinyl propanol ether maleate”, the “effect on HIV-1 (MT4)” value with HIV-1 (MT4) (1 × 10^-1 (50 μg/ml)), with HIV-1 (MT4) (1 × 10^-2 (5 μg/ml)) and in the data set on HIV-1 (MT4) (1 × 10^-3 (0.5 μg/ml)) was “+ (there were 2-3 or more positive cells in the whole well)” in each case.

Regarding “qinghaosu-morpholinyl propylether maleate”, the “effect on HIV-1 (MT4)” value with HIV-1 (MT4) (1 × 10^-1 (50 μg/ml)) is listed as “- (positive cells were not seen in the whole well)”; in the data set with HIV-1 (MT4) (1 × 10^-2 (5 μg/ml)), “+ (there were 2-3 or more positive cells in the whole well)”; with HIV-1 (MT4) (1 × 10^-3 (0.5 μg/ml)), “+ (there were 2-3 or more positive cells in the whole well)”.

As a reminder, the LD50 is the dose at which mortality reaches 50%. High values mean a less toxic substance, low ones a more toxic substance.
